According to the supplement of paper PMC10307832:

Experiments:
Experiment in all cases: relative viability (nuclei count vs DMSO), 5 days (fraction); higher = more cells survive
SW 1573 = system: SW 1573
How it was run: (§1)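 For relative viability, nuclei counts in treated wells were divided by those in vehicle wells. Lung cancer cell lines had been pin-tool dosed in 1536-well plates the day after seeding and cultured for 5 days, then fixed and stained in one step (final 0.05% Triton X-100, 1% formaldehyde, 1 ug/ml Hoechst) and imaged at 4×. Doses were one drug alone or a fixed anchor-drug dose plus five library-drug doses (not always all listed) in √10 steps, and values are duplicate-plate medians.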

NCI-H2228 = system: NCI-H2228
How it was run: as §1

NCI-H1915 = system: NCI-H1915
How it was run: as §1

NCI-H2342 = system: NCI-H2342
How it was run: as §1

UMC-11 = system: UMC-11
How it was run: as §1

LC-2-ad = system: LC-2-ad
How it was run: as §1

A-427 = system: A-427
How it was run: as §1

RERF-LC-KJ = system: RERF-LC-KJ
How it was run: as §1

NCI-H23 = system: NCI-H23
How it was run: as §1

HCC-366 = system: HCC-366
How it was run: as §1

NCI-H2170 = system: NCI-H2170
How it was run: as §1

NCI-H650 = system: NCI-H650
How it was run: as §1

NCI-H1993 = system: NCI-H1993
How it was run: as §1

NCI-H1792 = system: NCI-H1792
How it was run: as §1

NCI-H2347 = system: NCI-H2347
How it was run: as §1

SK-LU-1 = system: SK-LU-1
How it was run: as §1

HCC-827 = system: HCC-827
How it was run: as §1

NCI-H1734 = system: NCI-H1734
How it was run: as §1

NCI-H1355 = system: NCI-H1355
How it was run: as §1

LCLC-103H = system: LCLC-103H
How it was run: as §1

NCI-H1755 = system: NCI-H1755
How it was run: as §1

SK-MES-1 = system: SK-MES-1
How it was run: as §1

NCI-H1975 = system: NCI-H1975
How it was run: as §1

Which relative viability (SW 1573; first compound 0.02 µM) does the source give for CN1CCN(CCOc2cc(OC3CCOCC3)c3c(Nc4c(Cl)ccc5c4OCO5)ncnc3c2)CC1 [Saracatinib] + Cc1nc(Nc2ncc(C(=O)Nc3c(C)cccc3Cl)s2)cc(N2CCN(CCO)CC2)n1 [Dasatinib] (partner 0.075 µM) here?
The relative viability was 0.463.

What about the relative viability (SW 1573; first compound 0.2 µM) of the same compound?
Its relative viability is 0.454.

What about the relative viability (SW 1573; first compound 0.6325 µM) of the same compound?
Its relative viability is 0.489.

What about the relative viability (SW 1573; first compound 2 µM) of the same compound?
Its relative viability is 0.336.

And the relative viability (NCI-H2228; first compound 0.02 µM)?
Its relative viability is 0.501.

What about the relative viability (NCI-H2228; first compound 0.2 µM) of the same compound?
Its relative viability is 0.556.

What about the relative viability (NCI-H2228; first compound 0.6325 µM) of the same compound?
The relative viability was 0.576.

And the relative viability (NCI-H2228; first compound 2 µM)?
Its relative viability is 0.372.

And the relative viability (NCI-H1915; first compound 0.02 µM)?
The relative viability was 0.308.

And the relative viability (NCI-H1915; first compound 0.2 µM)?
The relative viability was 0.292.

What about the relative viability (NCI-H1915; first compound 0.6325 µM) of the same compound?
Its relative viability is 0.282.

What about the relative viability (NCI-H1915; first compound 2 µM) of the same compound?
The relative viability was 0.322.

What about the relative viability (NCI-H2342; first compound 0.02 µM) of the same compound?
Its relative viability is 0.398.

What about the relative viability (NCI-H2342; first compound 0.2 µM) of the same compound?
The relative viability was 0.327.

What about the relative viability (NCI-H2342; first compound 0.6325 µM) of the same compound?
The relative viability was 0.305.

And the relative viability (NCI-H2342; first compound 2 µM)?
The relative viability was 0.295.

And the relative viability (UMC-11; first compound 0.02 µM)?
The relative viability was 0.471.

And the relative viability (UMC-11; first compound 0.6325 µM)?
The relative viability was 0.543.

What about the relative viability (UMC-11; first compound 2 µM) of the same compound?
Its relative viability is 0.473.

What about the relative viability (LC-2-ad; first compound 0.02 µM) of the same compound?
Its relative viability is 0.611.

And the relative viability (LC-2-ad; first compound 0.2 µM)?
Its relative viability is 0.571.

And the relative viability (LC-2-ad; first compound 0.6325 µM)?
The relative viability was 0.794.

And the relative viability (LC-2-ad; first compound 2 µM)?
The relative viability was 0.596.

And the relative viability (A-427; first compound 0.02 µM)?
Its relative viability is 0.658.

What about the relative viability (A-427; first compound 0.2 µM) of the same compound?
Its relative viability is 0.652.

And the relative viability (A-427; first compound 0.6325 µM)?
Its relative viability is 0.691.

What about the relative viability (A-427; first compound 2 µM) of the same compound?
The relative viability was 0.777.

And the relative viability (RERF-LC-KJ; first compound 0.02 µM)?
Its relative viability is 0.883.

What about the relative viability (RERF-LC-KJ; first compound 0.2 µM) of the same compound?
The relative viability was 0.797.

What about the relative viability (RERF-LC-KJ; first compound 0.6325 µM) of the same compound?
Its relative viability is 0.695.

And the relative viability (RERF-LC-KJ; first compound 2 µM)?
Its relative viability is 0.676.

What about the relative viability (NCI-H23; first compound 0.02 µM) of the same compound?
The relative viability was 0.805.

What about the relative viability (NCI-H23; first compound 0.2 µM) of the same compound?
Its relative viability is 0.613.

What about the relative viability (NCI-H23; first compound 0.6325 µM) of the same compound?
Its relative viability is 0.837.

And the relative viability (NCI-H23; first compound 2 µM)?
The relative viability was 0.789.

What about the relative viability (HCC-366; first compound 0.02 µM) of the same compound?
Its relative viability is 0.636.

And the relative viability (HCC-366; first compound 0.6325 µM)?
The relative viability was 0.678.

What about the relative viability (HCC-366; first compound 2 µM) of the same compound?
The relative viability was 0.607.

What about the relative viability (NCI-H2170; first compound 0.02 µM) of the same compound?
Its relative viability is 0.766.

And the relative viability (NCI-H2170; first compound 0.2 µM)?
Its relative viability is 0.486.

What about the relative viability (NCI-H2170; first compound 0.6325 µM) of the same compound?
Its relative viability is 0.548.

What about the relative viability (NCI-H2170; first compound 2 µM) of the same compound?
The relative viability was 0.265.

And the relative viability (NCI-H650; first compound 0.02 µM)?
Its relative viability is 0.491.

What about the relative viability (NCI-H650; first compound 0.2 µM) of the same compound?
Its relative viability is 0.416.

And the relative viability (NCI-H650; first compound 0.6325 µM)?
Its relative viability is 0.477.

And the relative viability (NCI-H650; first compound 2 µM)?
Its relative viability is 0.429.

What about the relative viability (NCI-H1993; first compound 0.02 µM) of the same compound?
The relative viability was 0.589.

What about the relative viability (NCI-H1993; first compound 0.2 µM) of the same compound?
Its relative viability is 0.528.

And the relative viability (NCI-H1993; first compound 0.6325 µM)?
The relative viability was 0.527.

And the relative viability (NCI-H1993; first compound 2 µM)?
The relative viability was 0.501.

What about the relative viability (NCI-H1792; first compound 0.02 µM) of the same compound?
The relative viability was 0.824.

What about the relative viability (NCI-H1792; first compound 0.2 µM) of the same compound?
The relative viability was 0.566.

And the relative viability (NCI-H1792; first compound 0.6325 µM)?
Its relative viability is 0.894.

What about the relative viability (NCI-H1792; first compound 2 µM) of the same compound?
The relative viability was 0.711.

What about the relative viability (NCI-H2347; first compound 0.02 µM) of the same compound?
Its relative viability is 0.305.

And the relative viability (NCI-H2347; first compound 0.2 µM)?
The relative viability was 0.293.

And the relative viability (NCI-H2347; first compound 0.6325 µM)?
Its relative viability is 0.32.

And the relative viability (NCI-H2347; first compound 2 µM)?
Its relative viability is 0.346.

And the relative viability (SK-LU-1; first compound 0.02 µM)?
The relative viability was 0.148.

What about the relative viability (SK-LU-1; first compound 0.2 µM) of the same compound?
Its relative viability is 0.14.

And the relative viability (SK-LU-1; first compound 0.6325 µM)?
The relative viability was 0.138.

And the relative viability (SK-LU-1; first compound 2 µM)?
The relative viability was 0.146.

And the relative viability (HCC-827; first compound 0.02 µM)?
The relative viability was 0.3.

What about the relative viability (HCC-827; first compound 0.2 µM) of the same compound?
The relative viability was 0.136.

What about the relative viability (HCC-827; first compound 0.6325 µM) of the same compound?
Its relative viability is 0.22.

What about the relative viability (HCC-827; first compound 2 µM) of the same compound?
The relative viability was 0.131.

What about the relative viability (NCI-H1734; first compound 0.02 µM) of the same compound?
The relative viability was 0.455.

And the relative viability (NCI-H1734; first compound 0.6325 µM)?
Its relative viability is 0.49.

What about the relative viability (NCI-H1734; first compound 2 µM) of the same compound?
Its relative viability is 0.469.

And the relative viability (NCI-H1355; first compound 0.02 µM)?
Its relative viability is 0.716.

And the relative viability (NCI-H1355; first compound 0.2 µM)?
The relative viability was 0.703.

What about the relative viability (NCI-H1355; first compound 0.6325 µM) of the same compound?
The relative viability was 0.774.

What about the relative viability (NCI-H1355; first compound 2 µM) of the same compound?
The relative viability was 0.731.

And the relative viability (LCLC-103H; first compound 0.02 µM)?
Its relative viability is 0.475.

And the relative viability (LCLC-103H; first compound 0.2 µM)?
Its relative viability is 0.496.

And the relative viability (LCLC-103H; first compound 0.6325 µM)?
Its relative viability is 0.466.

What about the relative viability (LCLC-103H; first compound 2 µM) of the same compound?
Its relative viability is 0.515.

What about the relative viability (NCI-H1755; first compound 0.02 µM) of the same compound?
The relative viability was 0.422.

What about the relative viability (NCI-H1755; first compound 0.2 µM) of the same compound?
Its relative viability is 0.318.

And the relative viability (NCI-H1755; first compound 0.6325 µM)?
Its relative viability is 0.439.

And the relative viability (NCI-H1755; first compound 2 µM)?
Its relative viability is 0.404.

And the relative viability (SK-MES-1; first compound 0.02 µM)?
Its relative viability is 0.4.

What about the relative viability (SK-MES-1; first compound 0.2 µM) of the same compound?
Its relative viability is 0.289.

And the relative viability (SK-MES-1; first compound 0.6325 µM)?
The relative viability was 0.233.

What about the relative viability (SK-MES-1; first compound 2 µM) of the same compound?
Its relative viability is 0.186.

And the relative viability (NCI-H1975; first compound 0.02 µM)?
Its relative viability is 0.487.

And the relative viability (NCI-H1975; first compound 0.2 µM)?
The relative viability was 0.343.

And the relative viability (NCI-H1975; first compound 0.6325 µM)?
The relative viability was 0.372.

What about the relative viability (NCI-H1975; first compound 2 µM) of the same compound?
Its relative viability is 0.253.
